Assays:
[1] = system: HT29 cells; assay: Antiproliferative activity against HT29 cells (Cell Titer-Lumi, ATP content); assay type: cell-based; details: Homo sapiens, HT-29, 72 after compound addition, read-out: HT-29 cells Anti-proliferative activity (IC50 for the inhibition against HT-29 cell growth)
Method in brief: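 Growth inhibition IC50 derived from luminescent ATP content after 72 (units as printed) of compound exposure over a dilution gradient. Seeding density 3000 cells per well; compound added once cells had adhered overnight.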

[2] = molecular target: T1, Wee-1 kinase (Homo sapiens, UniProt P30291); assay: Inhibitory activity against Wee-1 kinase (Lanthra Screen Wee-1 kinase kit, Tracer 178); assay type: binding; details: Wee-1 kinase 5 nM, Tracer 178 50 nM, 1 h room temperature
T1 construct: purchased Invitrogen
Method in brief: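 Compound gradient in DMSO mixed with 5 nM Wee-1, 2 nM Eu-anti-GST antibody and 50 nM Tracer 178 (all final). Read after one hour at room temperature; IC50 calculated against the DMSO solvent control.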

T1 sequence (P30291 whole entry): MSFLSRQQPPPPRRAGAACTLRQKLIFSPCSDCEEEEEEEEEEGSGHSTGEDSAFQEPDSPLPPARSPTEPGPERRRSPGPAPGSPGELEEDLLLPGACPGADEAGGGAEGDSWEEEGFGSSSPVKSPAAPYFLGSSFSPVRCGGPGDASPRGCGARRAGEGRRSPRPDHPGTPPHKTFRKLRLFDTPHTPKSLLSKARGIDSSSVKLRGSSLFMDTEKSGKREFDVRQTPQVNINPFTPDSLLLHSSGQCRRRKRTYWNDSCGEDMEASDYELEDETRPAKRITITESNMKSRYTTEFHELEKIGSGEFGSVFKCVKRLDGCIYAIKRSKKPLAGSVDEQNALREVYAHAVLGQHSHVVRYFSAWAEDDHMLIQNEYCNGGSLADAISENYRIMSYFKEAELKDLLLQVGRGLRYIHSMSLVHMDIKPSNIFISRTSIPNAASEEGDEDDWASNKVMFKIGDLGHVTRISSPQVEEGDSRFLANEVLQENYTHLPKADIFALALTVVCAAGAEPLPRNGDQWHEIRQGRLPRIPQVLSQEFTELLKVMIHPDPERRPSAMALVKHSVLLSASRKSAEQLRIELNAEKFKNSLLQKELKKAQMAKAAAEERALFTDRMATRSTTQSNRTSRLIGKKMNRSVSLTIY

Row | SMILES | IC50 [1] | IC50 [2]
1 | C=CCn1c(=O)c2cnc(Nc3ccc(N4CCC(N5CCC5)CC4)cc3)nc2n1-c1ccc(=O)n(C(C)C)n1 [Compound 86] | ≤ 1 µM | ≤ 0.03 µM
2 | C=CCn1c(=O)c2cnc(Nc3ccc(N4CCNCC4)c(C(F)(F)F)c3)nc2n1-c1ccc(=O)n(C(C)C)c1 [Compound 49] | ≤ 1 µM | ≤ 0.03 µM
3 | C=CCn1c(=O)c2cnc(Nc3ccc(N4C[C@H](C)N(C)C[C@H]4C)c(C)c3)nc2n1-c1ccc(=O)n(C(C)C)n1 [Compound 127] | ≤ 1 µM | ≤ 0.03 µM
4 | C=CCn1c(=O)c2cnc(Nc3ccc4c(c3)C(C)(C)CNC4)nc2n1-c1ccc(=O)n(C(C)C)n1 [Compound 243] | ≤ 1 µM | ≤ 0.03 µM
5 | C=CCn1c(=O)c2cnc(Nc3ccc(N4CCC(N5CCN(C)CC5)CC4)c(C)c3)nc2n1-c1ccc(=O)n(C(C)C)n1 [Compound 143] | ≤ 1 µM | ≤ 0.03 µM
6 | CC(C)n1c(=O)c2cnc(Nc3ccc4c(c3)CN(C)CC43CC3)nc2n1-c1ccc(=O)n(C(C)(C)C)c1 [Compound 337] | ≤ 1 µM | ≤ 0.03 µM
7 | CCn1c(=O)c2cnc(Nc3ccc(N4CCN(C)CC4)c(C)c3)nc2n1-c1ccc(=O)n(C(C)C)n1 [Compound 275] | ≤ 1 µM | ≤ 0.03 µM
8 | C=CCn1c(=O)c2cnc(Nc3ccc(N4CC(N5CCC5)C4)cc3)nc2n1-c1ccc(=O)n(C(C)C)n1 [Compound 80] | 1 to 3 µM | ≤ 0.03 µM
9 | C=CCn1c(=O)c2cnc(Nc3cc(Cl)cc(C4CCN(C)CC4)c3)nc2n1-c1ccc(=O)n(C(C)C)n1 [Compound 211] | ≤ 1 µM | ≤ 0.03 µM
10 | C=CCn1c(=O)c2cnc(Nc3cc(Cl)c(N4CCNCC4)c(Cl)c3)nc2n1-c1ccc(=O)n(C(C)C)n1 [Compound 61] | ≤ 1 µM | ≤ 0.03 µM
11 | C=CCn1c(=O)c2cnc(Nc3ccc(N4CCNCC4)c(C)c3)nc2n1-c1ccc(=O)n(C(C)C)n1 [Compound 41] | ≤ 1 µM | ≤ 0.03 µM
12 | C=CCn1c(=O)c2cnc(Nc3ccc(N4C[C@@H](C)N[C@@H](C)C4)c(C(F)(F)F)c3)nc2n1-c1ccc(=O)n(C(C)C)n1 [Compound 122] | ≤ 1 µM | ≤ 0.03 µM
13 | CCn1c(=O)c2cnc(Nc3ccc(C4CCN(C)CC4)c(C)c3)nc2n1-c1ccc(=O)n(C(C)(C)C)c1 [Compound 332] | ≤ 1 µM | ≤ 0.03 µM
14 | C=CCn1c(=O)c2cnc(Nc3ccc(N4CCC(N5CCN(C)CC5)CC4)c(OC)c3)nc2n1-c1ccc(=O)n(C(C)C)n1 [Compound 144] | ≤ 1 µM | ≤ 0.03 µM
15 | C=CCn1c(=O)c2cnc(Nc3ccc(N4CCN(C5CCN(C)CC5)CC4)c(C)c3)nc2n1-c1ccc(=O)n(C(C)C)n1 [Compound 139] | ≤ 1 µM | ≤ 0.03 µM
16 | C=CCn1c(=O)c2cnc(Nc3ccc(N4CCC(N5CCCC5)CC4)c(OC)c3)nc2n1-c1ccc(=O)n(C(C)C)n1 [Compound 91] | ≤ 1 µM | ≤ 0.03 µM
17 | C=CCn1c(=O)c2cnc(Nc3ccc(N4CCC(N)CC4)c(OC)c3)nc2n1-c1ccc(=O)n(C(C)C)n1 [Compound 103] | ≤ 1 µM | ≤ 0.03 µM
18 | CC(C)n1c(=O)c2cnc(Nc3ccc(N4CCN(C)CC4)cc3)nc2n1-c1ccc(=O)n(C(C)(C)C)n1 [Compound 288] | ≤ 1 µM | ≤ 0.03 µM
19 | C=CCn1c(=O)c2cnc(Nc3ccc(N4CC5(CCNCC5)C4)cc3)nc2n1-c1ccc(=O)n(C(C)C)n1 [Compound 166] | 1 to 3 µM | 0.03 to 0.1 µM
20 | C=CCn1c(=O)c2cnc(Nc3ccc(N4CC5(CCNC5)C4)c(OC)c3)nc2n1-c1ccc(=O)n(C(C)C)n1 [Compound 162] | ≤ 1 µM | ≤ 0.03 µM
21 | CN1Cc2cc(Nc3ncc4c(=O)n(C5CC5)n(-c5ccc(=O)n(C(C)(C)C)n5)c4n3)ccc2C2(CC2)C1 [Compound 295] | ≤ 1 µM | ≤ 0.03 µM
22 | C=CCn1c(=O)c2cnc(Nc3ccc(N4CCC(N(C)C)CC4)cc3)nc2n1-c1ccc(=O)n(C(C)C)n1 [Compound 98] | ≤ 1 µM | ≤ 0.03 µM
23 | C=CCn1c(=O)c2cnc(Nc3cnn(C4CCN(C)CC4)c3)nc2n1-c1ccc(=O)n(C(C)C)n1 [Compound 250] | 1 to 3 µM | 0.03 to 0.1 µM
24 | C=CCn1c(=O)c2cnc(Nc3ccc4c(c3)CN(C)CC4(F)F)nc2n1-c1ccc(=O)n(C(C)C)n1 [Compound 241] | ≤ 1 µM | ≤ 0.03 µM
25 | C=CCn1c(=O)c2cnc(Nc3cc(C)cc(N4CCNCC4)c3)nc2n1-c1ccc(=O)n(C(C)C)n1 [Compound 69] | ≤ 1 µM | ≤ 0.03 µM
26 | CCn1c(=O)c2cnc(Nc3ccc(N4CCN(C)CC4)c(C)c3)nc2n1-c1ccc(=O)n(C(C)(C)C)c1 [Compound 331] | ≤ 1 µM | ≤ 0.03 µM
27 | C=CCn1c(=O)c2cnc(Nc3ccc4c(c3)CN(C)CC4(C)C)nc2n1-c1ccc(=O)n(C(C)C)n1 [Compound 238] | ≤ 1 µM | ≤ 0.03 µM
28 | C=CCn1c(=O)c2cnc(Nc3ccc(N4CCC(N5CCC5)CC4)c(C)c3)nc2n1-c1ccc(=O)n(C(C)C)n1 [Compound 87] | ≤ 1 µM | ≤ 0.03 µM

Row | SMILES | IC50 [1] | IC50 [2]
29 | C=CCn1c(=O)c2cnc(Nc3ccc(N4CC(N(C)C)C4)cc3)nc2n1-c1ccc(=O)n(C(C)C)n1 [Compound 77] | ≤ 1 µM | ≤ 0.03 µM
30 | C=CCn1c(=O)c2cnc(Nc3ccc(N4CCN(C5CC5)CC4)cc3)nc2n1-c1ccc(=O)n(C(C)C)n1 [Compound 33] | ≤ 1 µM | ≤ 0.03 µM
31 | C=CCn1c(=O)c2cnc(Nc3ccc(N4CCNCC4)c(CO)c3)nc2n1-c1ccc(=O)n(C(C)C)c1 [Compound 51] | 1 to 3 µM | 0.03 to 0.1 µM
32 | C=CCn1c(=O)c2cnc(Nc3ccc4c(c3)CNC4)nc2n1-c1ccc(=O)n(C(C)C)n1 [Compound 221] | 1 to 3 µM | ≤ 0.03 µM
33 | C=CCn1c(=O)c2cnc(Nc3ccc(N4CCN(C)CC4)cc3)nc2n1-c1cc(C(F)F)c(=O)n(C(C)C)c1 [Compound 26] | ≤ 1 µM | ≤ 0.03 µM
34 | C=CCn1c(=O)c2cnc(Nc3ccc(N4CC5(CNC5)C4)cc3)nc2n1-c1ccc(=O)n(C(C)C)n1 [Compound 154] | 1 to 3 µM | ≤ 0.03 µM
35 | C=CCn1c(=O)c2cnc(Nc3cc(C)c(N4CCN(C)CC4)c(F)c3)nc2n1-c1ccc(=O)n(C(C)C)n1 [Compound 56] | ≤ 1 µM | ≤ 0.03 µM
36 | C=CCn1c(=O)c2cnc(Nc3ccc4c(c3)CN(C)CC43CC3)nc2n1-c1ccc(=O)n(C(C)C)c1 [Compound 298] | ≤ 1 µM | ≤ 0.03 µM
37 | C=CCn1c(=O)c2cnc(Nc3ccc4c(C5CCN(C)CC5)c[nH]c4c3)nc2n1-c1ccc(=O)n(C(C)C)n1 [Compound 267] | ≤ 1 µM | ≤ 0.03 µM
38 | C=CCn1c(=O)c2cnc(Nc3ccc(N4CCN(C)CC4)c(C(F)(F)F)c3)nc2n1-c1ccc(=O)n(C(C)C)c1 [Compound 50] | ≤ 1 µM | ≤ 0.03 µM
39 | C=CCn1c(=O)c2cnc(Nc3ccc(N4CC5(CN(C)C5)C4)c(OC)c3)nc2n1-c1ccc(=O)n(C(C)C)n1 [Compound 159] | ≤ 1 µM | ≤ 0.03 µM
40 | C=CCn1c(=O)c2cnc(Nc3ccc4c(c3)CN(C(C)C)CC4)nc2n1-c1ccc(=O)n(C(C)C)n1 [Compound 227] | ≤ 1 µM | ≤ 0.03 µM
41 | C=CCn1c(=O)c2cnc(Nc3ccc4c(N5CCN(C(C)C)CC5)cn(C)c4c3)nc2n1-c1ccc(=O)n(C(C)C)n1 [Compound 265] | ≤ 1 µM | ≤ 0.03 µM
42 | C=CCn1c(=O)c2cnc(Nc3ccc(N4CCC(C)(N(C)C)CC4)cc3)nc2n1-c1ccc(=O)n(C(C)C)n1 [Compound 113] | ≤ 1 µM | ≤ 0.03 µM
43 | C=CCn1c(=O)c2cnc(Nc3ccc(N4CC5CCC(C4)N5)cc3)nc2n1-c1ccc(=O)n(C(C)C)n1 [Compound 135] | 1 to 3 µM | 0.03 to 0.1 µM
44 | C=CCn1c(=O)c2cnc(Nc3ccc(N4CCC5(CC4)CN(C)C5)c(OC)c3)nc2n1-c1ccc(=O)n(C(C)C)n1 [Compound 180] | ≤ 1 µM | ≤ 0.03 µM
45 | C=CCn1c(=O)c2cnc(Nc3ccc4c(c3)CN(C)CC43CC3)nc2n1-c1ccc(=O)n(C(C)(C)C)c1 [Compound 329] | ≤ 1 µM | ≤ 0.03 µM
46 | Cc1cc(Nc2ncc3c(=O)n(C4CC4)n(-c4ccc(=O)n(C(C)(C)C)n4)c3n2)ccc1C1CCN(C)CC1 [Compound 294] | ≤ 1 µM | ≤ 0.03 µM
47 | C=CCn1c(=O)c2cnc(Nc3ccc4c(c3)CNC4(C)C)nc2n1-c1ccc(=O)n(C(C)C)n1 [Compound 223] | ≤ 1 µM | ≤ 0.03 µM
48 | CCn1c(=O)c2cnc(Nc3ccc(N4CCN(C)CC4)cc3)nc2n1-c1ccc(=O)n(C(C)(C)C)c1 [Compound 330] | ≤ 1 µM | ≤ 0.03 µM
49 | C=CCn1c(=O)c2cnc(Nc3ccc4c(N5CCN(C(C)C)CC5)c[nH]c4c3)nc2n1-c1ccc(=O)n(C(C)C)n1 [Compound 262] | ≤ 1 µM | ≤ 0.03 µM
50 | CCn1c(=O)c2cnc(Nc3ccc(N4CCN(C)CC4)c(C)c3)nc2n1-c1cc(F)c(=O)n(C(C)C)c1 [Compound 316] | ≤ 1 µM | ≤ 0.03 µM
51 | C=CCn1c(=O)c2cnc(Nc3ccc(CCN(C)C)cc3)nc2n1-c1ccc(=O)n(C(C)C)n1 [Compound 214] | ≤ 1 µM | ≤ 0.03 µM
52 | C=CCn1c(=O)c2cnc(Nc3ccc(N4CCN(C)CC4)cc3)nc2n1-c1ccc(=O)n(C2CCCC2)n1 [Compound 13] | ≤ 1 µM | ≤ 0.03 µM
53 | Cc1cc(Nc2ncc3c(=O)n(C(C)C)n(-c4ccc(=O)n(C(C)C)n4)c3n2)ccc1C1CCN(C)CC1 [Compound 279] | ≤ 1 µM | ≤ 0.03 µM
54 | C=CCn1c(=O)c2cnc(Nc3ccc(N4CCN(C)CC4)cc3)nc2n1-c1cc(C)c(=O)n(C(C)C)n1 [Compound 22] | ≤ 1 µM | ≤ 0.03 µM
55 | C=CCn1c(=O)c2cnc(Nc3ccc(N4CCN(C)CC4)cc3)nc2n1-c1cc(C(F)(F)F)c(=O)n(C(C)C)c1 [Compound 25] | ≤ 1 µM | ≤ 0.03 µM

From patent US12522607B2, “Substituted pyrazolo[3,4-d]pyrimidines as wee-1 inhibitors” (WIGEN BIOMEDICINE TECHNOLOGY (SHANGHAI) CO., LTD., priority 2020, dated 2026)
